Measured values taken from ChEMBL document CHEMBL3885881, “DrugMatrix”.

Species on record: Rattus norvegicus
Test: DrugMatrix - Regimen: Daily Repeat
Format: toxicity, organism-based, Sprague-Dawley
Parameters: regimen Daily Repeat, gender Male, age 6-8 weeks
Conditions: in vivo, po, route oral GAVAGE, vehicle .5 % CMC; for BASOPHIL / EOSINOPHIL / ERYTHROCYTE COUNT / HEMATOCRIT / LEUKOCYTE COUNT / LYMPHOCYTE / MEAN CORPUSCULAR HEMOGLOBIN / MEAN CORPUSCULAR HEMOGLOBIN CONCENTRATION / MEAN CORPUSCULAR VOLUME / MONOCYTE / NEUTROPHIL / PLATELET COUNT: tissue Blood; for ALANINE AMINOTRANSFERASE / ALBUMIN / ALKALINE PHOSPHATASE / ASPARTATE AMINOTRANSFERASE / BLOOD UREA NITROGEN / CHLORIDE / CHOLESTEROL / CREATININE / GLUCOSE / PHOSPHORUS / POTASSIUM / TOTAL BILIRUBIN / TOTAL PROTEIN: tissue Plasma
[1] = 0 mg/kg, 72 h, dose level Control, time 3 day
[2] = 0 mg/kg, 120 h, dose level Control, time 5 day
[3] = 10 mg/kg, 72 h, dose level Low, time 3 day
[4] = 10 mg/kg, 120 h, dose level Low, time 5 day
[5] = 52 mg/kg, 72 h, dose level High, time 3 day
[6] = 52 mg/kg, 120 h, dose level High, time 5 day

With CNCCC(Oc1ccc(C(F)(F)F)cc1)c1ccccc1 (configuration not stated) [FLUOXETINE] the BASOPHIL [1] was 0%, the EOSINOPHIL [1] was 0% and the “ERYTHROCYTE COUNT” value [1] was 6.34 x10E6/uL. For the same compound, the HEMATOCRIT [1] was 37.62%, the “LEUKOCYTE COUNT” value [1] was 11.18 x10E3/uL and the LYMPHOCYTE [1] was 87.5%. For the same compound, the “MEAN CORPUSCULAR HEMOGLOBIN” value [1] was 23.48 pg, the “MEAN CORPUSCULAR HEMOGLOBIN CONCENTRATION” value [1] was 39.5 G/DL and the “MEAN CORPUSCULAR VOLUME” value [1] was 59.45 fL. For the same compound, the MONOCYTE [1] was 1.67%, the NEUTROPHIL [1] was 10.83% and the “PLATELET COUNT” value [1] was 1074.83 x10E3/uL. For the same compound, the “ALANINE AMINOTRANSFERASE” value [1] was 36.5 u/L, the ALBUMIN [1] was 3.9 G/DL and the “ALKALINE PHOSPHATASE” value [1] was 370.17 u/L. The “ASPARTATE AMINOTRANSFERASE” value [1] was 63.17 u/L, the “BLOOD UREA NITROGEN” value [1] was 16.83 mg/dL and the CHLORIDE [1] was 99.33 MEQ/L. For the same compound, the CHOLESTEROL [1] was 64.33 mg/dL, the CREATININE [1] was 0.55 mg/dL and the GLUCOSE [1] was 173.5 mg/dL. For the same compound, the PHOSPHORUS [1] was 10.08 mg/dL, the POTASSIUM [1] was 6.23 MEQ/L and the “TOTAL BILIRUBIN” value [1] was 0.52 mg/dL. The “TOTAL PROTEIN” value [1] was 6.35 G/DL, the BASOPHIL [2] was 0% and the EOSINOPHIL [2] was 0.17%. The “ERYTHROCYTE COUNT” value [2] was 6.12 x10E6/uL, the HEMATOCRIT [2] was 37.08% and the “LEUKOCYTE COUNT” value [2] was 11.87 x10E3/uL. For the same compound, the LYMPHOCYTE [2] was 83.33%, the “MEAN CORPUSCULAR HEMOGLOBIN” value [2] was 24.25 pg and the “MEAN CORPUSCULAR HEMOGLOBIN CONCENTRATION” value [2] was 39.97 G/DL. The “MEAN CORPUSCULAR VOLUME” value [2] was 60.65 fL, the MONOCYTE [2] was 1.5% and the NEUTROPHIL [2] was 15%. For the same compound, the “PLATELET COUNT” value [2] was 1042.83 x10E3/uL, the “ALANINE AMINOTRANSFERASE” value [2] was 46 u/L and the ALBUMIN [2] was 3.82 G/DL. For the same compound, the “ALKALINE PHOSPHATASE” value [2] was 369.5 u/L, the “ASPARTATE AMINOTRANSFERASE” value [2] was 65 u/L and the “BLOOD UREA NITROGEN” value [2] was 16.33 mg/dL. The CHLORIDE [2] was 100.67 MEQ/L, the CHOLESTEROL [2] was 57.17 mg/dL and the CREATININE [2] was 0.53 mg/dL. It also gave a GLUCOSE [2] of 163.33 mg/dL, a PHOSPHORUS [2] of 9.53 mg/dL and a POTASSIUM [2] of 6.27 MEQ/L. The “TOTAL BILIRUBIN” value [2] was 0.55 mg/dL, the “TOTAL PROTEIN” value [2] was 6.32 G/DL and the BASOPHIL [3] was 0%. The EOSINOPHIL [3] was 0%, the “ERYTHROCYTE COUNT” value [3] was 6.11 x10E6/uL and the HEMATOCRIT [3] was 38.43%. The “LEUKOCYTE COUNT” value [3] was 11.83 x10E3/uL, the LYMPHOCYTE [3] was 84.67% and the “MEAN CORPUSCULAR HEMOGLOBIN” value [3] was 24.53 pg. The “MEAN CORPUSCULAR HEMOGLOBIN CONCENTRATION” value [3] was 39 G/DL, the “MEAN CORPUSCULAR VOLUME” value [3] was 62.8 fL and the MONOCYTE [3] was 1.67%. For the same compound, the NEUTROPHIL [3] was 13.67%, the “PLATELET COUNT” value [3] was 1383.67 x10E3/uL and the “ALANINE AMINOTRANSFERASE” value [3] was 32.67 u/L. The ALBUMIN [3] was 4 G/DL, the “ALKALINE PHOSPHATASE” value [3] was 373.67 u/L and the “ASPARTATE AMINOTRANSFERASE” value [3] was 53 u/L. The “BLOOD UREA NITROGEN” value [3] was 15.67 mg/dL, the CHLORIDE [3] was 99.33 MEQ/L and the CHOLESTEROL [3] was 78 mg/dL. It also gave a CREATININE [3] of 0.5 mg/dL, a GLUCOSE [3] of 162 mg/dL and a PHOSPHORUS [3] of 11 mg/dL. The POTASSIUM [3] was 5.93 MEQ/L, the “TOTAL BILIRUBIN” value [3] was 0.33 mg/dL and the “TOTAL PROTEIN” value [3] was 6.6 G/DL. The BASOPHIL [4] was 0%, the EOSINOPHIL [4] was 0.33% and the “ERYTHROCYTE COUNT” value [4] was 6.65 x10E6/uL. The HEMATOCRIT [4] was 39.33%, the “LEUKOCYTE COUNT” value [4] was 11.3 x10E3/uL and the LYMPHOCYTE [4] was 91%. For the same compound, the “MEAN CORPUSCULAR HEMOGLOBIN” value [4] was 23.1 pg, the “MEAN CORPUSCULAR HEMOGLOBIN CONCENTRATION” value [4] was 39.1 G/DL and the “MEAN CORPUSCULAR VOLUME” value [4] was 59.13 fL. For the same compound, the MONOCYTE [4] was 0.67%, the NEUTROPHIL [4] was 8% and the “PLATELET COUNT” value [4] was 1162.33 x10E3/uL. For the same compound, the “ALANINE AMINOTRANSFERASE” value [4] was 35 u/L, the ALBUMIN [4] was 3.83 G/DL and the “ALKALINE PHOSPHATASE” value [4] was 381 u/L. The “ASPARTATE AMINOTRANSFERASE” value [4] was 55 u/L, the “BLOOD UREA NITROGEN” value [4] was 13.67 mg/dL and the CHLORIDE [4] was 97.67 MEQ/L. For the same compound, the CHOLESTEROL [4] was 67.67 mg/dL, the CREATININE [4] was 0.57 mg/dL and the GLUCOSE [4] was 169 mg/dL. The PHOSPHORUS [4] was 12.13 mg/dL, the POTASSIUM [4] was 6.2 MEQ/L and the “TOTAL BILIRUBIN” value [4] was 0.43 mg/dL. For the same compound, the “TOTAL PROTEIN” value [4] was 6.3 G/DL, the BASOPHIL [5] was 0% and the EOSINOPHIL [5] was 0.33%. For the same compound, the “ERYTHROCYTE COUNT” value [5] was 6.76 x10E6/uL, the HEMATOCRIT [5] was 40.83% and the LYMPHOCYTE [5] was 90%. The “MEAN CORPUSCULAR HEMOGLOBIN” value [5] was 24.27 pg, the “MEAN CORPUSCULAR HEMOGLOBIN CONCENTRATION” value [5] was 40.07 G/DL and the “MEAN CORPUSCULAR VOLUME” value [5] was 60.57 fL. The MONOCYTE [5] was 1%, the NEUTROPHIL [5] was 8.67% and the “PLATELET COUNT” value [5] was 1353.67 x10E3/uL. For the same compound, the “ALANINE AMINOTRANSFERASE” value [5] was 23.67 u/L, the ALBUMIN [5] was 3.93 G/DL and the “ALKALINE PHOSPHATASE” value [5] was 317 u/L. The “ASPARTATE AMINOTRANSFERASE” value [5] was 55.67 u/L, the “BLOOD UREA NITROGEN” value [5] was 14.67 mg/dL and the CHLORIDE [5] was 97.67 MEQ/L. The CHOLESTEROL [5] was 88.33 mg/dL, the CREATININE [5] was 0.63 mg/dL and the GLUCOSE [5] was 135.67 mg/dL. The POTASSIUM [5] was 6.83 MEQ/L, the “TOTAL BILIRUBIN” value [5] was 0.47 mg/dL and the BASOPHIL [6] was 0%. For the same compound, the EOSINOPHIL [6] was 0%, the “ERYTHROCYTE COUNT” value [6] was 7.1 x10E6/uL and the HEMATOCRIT [6] was 41.93%. For the same compound, the “LEUKOCYTE COUNT” value [6] was 12.47 x10E3/uL, the LYMPHOCYTE [6] was 88.67% and the “MEAN CORPUSCULAR HEMOGLOBIN” value [6] was 23.53 pg. For the same compound, the “MEAN CORPUSCULAR HEMOGLOBIN CONCENTRATION” value [6] was 39.7 G/DL, the “MEAN CORPUSCULAR VOLUME” value [6] was 59.33 fL and the MONOCYTE [6] was 0.33%. The NEUTROPHIL [6] was 11%, the “PLATELET COUNT” value [6] was 1164.33 x10E3/uL and the “ALANINE AMINOTRANSFERASE” value [6] was 37 u/L. The ALBUMIN [6] was 3.8 G/DL, the “ALKALINE PHOSPHATASE” value [6] was 263.33 u/L and the “ASPARTATE AMINOTRANSFERASE” value [6] was 65.67 u/L. The “BLOOD UREA NITROGEN” value [6] was 13.67 mg/dL, the CHLORIDE [6] was 98.33 MEQ/L and the CHOLESTEROL [6] was 79.67 mg/dL. The CREATININE [6] was 0.6 mg/dL, the GLUCOSE [6] was 142.33 mg/dL and the PHOSPHORUS [6] was 12.27 mg/dL. The POTASSIUM [6] was 6.23 MEQ/L, the “TOTAL BILIRUBIN” value [6] was 0.4 mg/dL and the “TOTAL PROTEIN” value [6] was 6.3 G/DL.
